# Measurements published in article PMC3113701 (Nature communications, 2010).
# “Also recorded” adds a separate entry of the source. Where two headings read alike, the source gives them in different places.
# Key:
# NR1/NR2C receptors [1] = target: T1, NR1/NR2C receptors (Rattus norvegicus, UniProt Q00961); experiment: Two-electrode voltage-clamp, recombinant NR1/NR2C in Xenopus oocytes; type: cell-based; settings: for Slope: Control (no CIQ)
# NR1/NR2D receptors [2] = target: T2, NR1/NR2D receptors (Rattus norvegicus, UniProt Q62645); experiment: Two-electrode voltage-clamp, recombinant NR1/NR2D in Xenopus oocytes; type: cell-based; settings: for Slope: Control (no CIQ)
# T2 sequence (Q62645 28-1323, other chains not shown): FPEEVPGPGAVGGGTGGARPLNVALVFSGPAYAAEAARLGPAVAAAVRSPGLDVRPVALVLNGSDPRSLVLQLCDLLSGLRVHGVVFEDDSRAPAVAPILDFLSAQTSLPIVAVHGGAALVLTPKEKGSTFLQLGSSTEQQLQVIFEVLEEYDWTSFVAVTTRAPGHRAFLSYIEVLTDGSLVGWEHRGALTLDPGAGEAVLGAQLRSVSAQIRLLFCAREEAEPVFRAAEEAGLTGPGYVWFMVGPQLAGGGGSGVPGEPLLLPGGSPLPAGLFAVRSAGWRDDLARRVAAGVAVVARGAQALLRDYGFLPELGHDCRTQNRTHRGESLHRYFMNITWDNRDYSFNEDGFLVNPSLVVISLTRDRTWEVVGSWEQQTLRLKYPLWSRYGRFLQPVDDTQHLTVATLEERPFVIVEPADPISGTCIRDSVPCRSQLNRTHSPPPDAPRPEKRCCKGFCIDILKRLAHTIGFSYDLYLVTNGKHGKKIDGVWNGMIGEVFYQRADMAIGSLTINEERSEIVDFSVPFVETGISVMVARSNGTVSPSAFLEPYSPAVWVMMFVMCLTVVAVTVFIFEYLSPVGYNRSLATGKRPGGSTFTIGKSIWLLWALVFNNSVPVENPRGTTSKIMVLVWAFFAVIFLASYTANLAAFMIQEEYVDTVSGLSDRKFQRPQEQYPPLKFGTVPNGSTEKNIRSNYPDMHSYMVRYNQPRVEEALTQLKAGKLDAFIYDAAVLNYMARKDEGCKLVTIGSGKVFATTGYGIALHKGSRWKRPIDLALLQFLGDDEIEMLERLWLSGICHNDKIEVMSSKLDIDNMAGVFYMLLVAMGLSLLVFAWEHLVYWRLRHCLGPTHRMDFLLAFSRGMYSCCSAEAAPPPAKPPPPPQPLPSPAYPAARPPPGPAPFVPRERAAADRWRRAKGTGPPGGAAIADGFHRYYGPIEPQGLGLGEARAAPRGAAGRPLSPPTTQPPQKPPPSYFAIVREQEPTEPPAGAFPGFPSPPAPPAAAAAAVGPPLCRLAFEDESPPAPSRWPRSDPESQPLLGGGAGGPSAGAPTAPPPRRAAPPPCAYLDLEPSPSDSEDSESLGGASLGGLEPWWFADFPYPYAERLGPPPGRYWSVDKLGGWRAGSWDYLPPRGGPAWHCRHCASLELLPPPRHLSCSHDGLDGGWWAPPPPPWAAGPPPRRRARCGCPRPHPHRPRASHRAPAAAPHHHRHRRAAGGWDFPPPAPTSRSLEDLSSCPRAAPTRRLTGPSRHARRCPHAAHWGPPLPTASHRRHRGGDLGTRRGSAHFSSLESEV
# NR1/NR2A receptors [3] = experiment: Two-electrode voltage-clamp, recombinant NR1/NR2A in Xenopus oocytes; type: cell-based, rat
# NR1/NR2B receptors [4] = experiment: Two-electrode voltage-clamp, recombinant NR1/NR2B in Xenopus oocytes; type: cell-based, rat
# AMPA (GluR1) receptor = experiment: Two-electrode voltage-clamp, AMPA receptor GluR1 in oocytes; type: cell-based; settings: 10 μM CIQ, 100 μM glutamate
# GluR2 receptor = experiment: Two-electrode voltage-clamp, GluR2 in oocytes; type: cell-based; settings: 10 μM CIQ, 100 μM glutamate
# GluR3 receptor = experiment: Two-electrode voltage-clamp, GluR3 in oocytes; type: cell-based; settings: 10 μM CIQ, 100 μM glutamate
# GluR4 receptor = experiment: Two-electrode voltage-clamp, GluR4 in oocytes; type: cell-based; settings: 10 μM CIQ, 100 μM glutamate
# GluR5 receptor = experiment: Two-electrode voltage-clamp, GluR5 in oocytes; type: cell-based; settings: 10 μM CIQ; 100 μM glutamate; concanavalin-A pretreated oocytes
# kainate (GluR6) receptor = experiment: Two-electrode voltage-clamp, kainate receptor GluR6 in oocytes; type: cell-based; settings: 10 μM CIQ; 100 μM glutamate; concanavalin-A pretreated oocytes
# NR1/NR2C receptors [5] = target: NR1/NR2C receptors (Rattus norvegicus, UniProt P35439+Q00961); experiment: Whole-cell voltage-clamp, NR1/NR2C in HEK 293 cells; type: cell-based
# Chain of NR1/NR2C receptors (Rattus norvegicus, UniProt P35439+Q00961) (Q00961 20-1237, other chains not shown): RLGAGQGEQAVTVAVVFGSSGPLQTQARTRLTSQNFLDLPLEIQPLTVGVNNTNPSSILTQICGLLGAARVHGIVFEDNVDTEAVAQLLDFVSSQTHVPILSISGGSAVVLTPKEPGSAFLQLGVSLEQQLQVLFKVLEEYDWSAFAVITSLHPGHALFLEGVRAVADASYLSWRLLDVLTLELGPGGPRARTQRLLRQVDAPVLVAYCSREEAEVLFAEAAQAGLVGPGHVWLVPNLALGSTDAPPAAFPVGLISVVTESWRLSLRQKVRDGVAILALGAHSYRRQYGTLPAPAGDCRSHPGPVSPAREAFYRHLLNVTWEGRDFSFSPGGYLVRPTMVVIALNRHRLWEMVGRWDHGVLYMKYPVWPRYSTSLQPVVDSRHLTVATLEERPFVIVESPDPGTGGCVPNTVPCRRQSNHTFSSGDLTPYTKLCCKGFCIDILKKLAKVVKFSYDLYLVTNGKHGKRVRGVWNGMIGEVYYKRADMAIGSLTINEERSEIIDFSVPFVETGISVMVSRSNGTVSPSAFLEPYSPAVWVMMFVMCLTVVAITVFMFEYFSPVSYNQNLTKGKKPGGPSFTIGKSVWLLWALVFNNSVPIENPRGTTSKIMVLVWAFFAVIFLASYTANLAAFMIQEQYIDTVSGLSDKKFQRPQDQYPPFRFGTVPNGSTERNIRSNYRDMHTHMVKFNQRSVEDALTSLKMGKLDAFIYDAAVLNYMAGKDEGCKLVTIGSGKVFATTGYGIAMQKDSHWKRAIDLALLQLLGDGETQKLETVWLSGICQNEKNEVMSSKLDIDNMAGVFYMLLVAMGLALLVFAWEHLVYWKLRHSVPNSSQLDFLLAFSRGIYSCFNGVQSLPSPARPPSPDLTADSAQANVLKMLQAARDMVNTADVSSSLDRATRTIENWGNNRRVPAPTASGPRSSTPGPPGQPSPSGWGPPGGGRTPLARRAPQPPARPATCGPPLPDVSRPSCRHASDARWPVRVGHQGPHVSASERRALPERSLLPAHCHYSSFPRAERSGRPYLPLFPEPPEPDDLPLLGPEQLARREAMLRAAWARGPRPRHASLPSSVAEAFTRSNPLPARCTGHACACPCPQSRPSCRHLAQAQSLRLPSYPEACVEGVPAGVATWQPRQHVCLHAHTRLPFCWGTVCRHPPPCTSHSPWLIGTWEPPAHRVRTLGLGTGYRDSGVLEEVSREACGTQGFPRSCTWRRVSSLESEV
# NR1/NR2C receptors [6] = target: T1, NR1/NR2C receptors; experiment: as above; type: cell-based
# NR1/NR2D receptors [7] = target: T2, NR1/NR2D receptors; experiment: Whole-cell voltage-clamp, NR1/NR2D in HEK 293 cells; type: cell-based
# NR1/NR2A receptors [8] = experiment: Whole-cell voltage-clamp, NR1/NR2A in HEK 293 cells; type: cell-based, rat; settings: concentration-effect relationship
# NR1/NR2B receptors [9] = experiment: Whole-cell voltage-clamp, NR1/NR2B in HEK 293 cells; type: cell-based, rat; settings: 20 μM CIQ
# NR1/NR2D receptors [10] = target: T2, NR1/NR2D receptors; experiment: Single channel recording, outside-out patches with NR1/NR2D; type: cell-based; settings: 10 μM CIQ
# [11] = test system: NR2A-(2D L+M1e) chimeric receptor; experiment: Oocyte recording of chimera NR2A-; type: cell-based, rat; settings: 10 μM CIQ plus 100 μM glutamate and 30 μM glycine
# [12] = test system: NR2A with ATD-S1 linker (L) of NR2D; experiment: Oocyte recording of NR2A with NR2D ATD-S1 linker; type: cell-based, rat; settings: oocytes
# [13] = test system: NR2A with residues 590-594 of NR2D; experiment: Oocyte recording of NR2A with NR2D residues 590-594 alone; type: cell-based, rat; settings: oocytes
# [14] = test system: 2D-(2A L) chimeric receptor; experiment: Oocyte recording of chimera 2D-; type: cell-based, rat; settings: oocytes
# [15] = test system: 2D-(2A ATD+L) chimeric receptor; experiment: Oocyte recording of chimera 2D-; type: cell-based, rat; settings: oocytes
# NR1/NR2D(T592I) = experiment: Oocyte recording of mutant NR1/NR2D; type: cell-based, rat; settings: oocytes
# [16] = test system: NR2A(I567T) with linker (L) between NR2D ATD and S1; experiment: Oocyte recording of NR2A; type: cell-based, rat; settings: 10 μM CIQ; oocytes
# [17] = test system: native NMDA receptors in subthalamic neurons; type: cell-based, rat
# [18] = test system: native NMDA receptors in CA1 hippocampal pyramidal neurons; type: cell-based, rat; settings: 20 μM CIQ; pressure-applied NMDA and glycine
# [19] = Maximum solubility by nephelometer; type: physicochemical; settings: kinetic from dmso stock
# [20] = test system: NMDA receptors containing the NR2C or NR2D subunit; experiment: Potentiation of NR2C- or NR2D-containing NMDA receptors; type: cell-based; settings: read-out: EC50 for enhancement of receptor responses; abstract summary value
# [21] = test system: 2A-(2D L+S1M1M2M3S2) chimeric receptor; experiment: Oocyte recording of chimera 2A-; type: cell-based, rat; settings: 10 μM CIQ plus 100 μM glutamate and 30 μM glycine
# [22] = test system: 2A-(2D L+S1M1) chimeric receptor; experiment: Oocyte recording of chimera 2A-; type: cell-based, rat; settings: 10 μM CIQ plus 100 μM glutamate and 30 μM glycine
# [23] = test system: 2A-(2D L+S1M1b) chimeric receptor; experiment: Oocyte recording of chimera 2A-; type: cell-based, rat; settings: 10 μM CIQ plus 100 μM glutamate and 30 μM glycine
# [24] = test system: 2A-(2D L+S1M1c) chimeric receptor; experiment: Oocyte recording of chimera 2A-; type: cell-based, rat; settings: 10 μM CIQ plus 100 μM glutamate and 30 μM glycine
# NR1/NR2A* receptors = experiment: Oocyte recording of NR1/NR2A*; settings: oocytes; triheteromeric recording conditions
# [25] = test system: NR1/NR2A*/NR2B triheteromeric receptors; experiment: Triheteromeric NMDA receptors in oocytes, NR1/NR2A*/NR2B; settings: 10 μM CIQ; 10 mM glutamate, 100 μM glycine, 1 mM Mg2+
# [26] = test system: NR1/NR2A*/NR2C triheteromeric receptors; experiment: Triheteromeric NMDA receptors in oocytes, NR1/NR2A*/NR2C; settings: 10 μM CIQ; 10 mM glutamate, 100 μM glycine, 1 mM Mg2+
# [27] = test system: NR1/NR2A*/NR2D triheteromeric receptors; experiment: Triheteromeric NMDA receptors in oocytes, NR1/NR2A*/NR2D; settings: 10 μM CIQ; 10 mM glutamate, 100 μM glycine, 1 mM Mg2+
# [28] = 10 μM CIQ plus 100 μM glutamate and 30 μM glycine
# [29] = 10 μM CIQ in 100 μM glutamate and 30 μM glycine, HEK 293, 23°C
# [30] = HEK 293 cells, single exponential
# [31] = following pre-application of CIQ, HEK 293
# [32] = read-out: agonist EC50, + 20 μM CIQ
# [33] = read-out: agonist EC50, Control (no CIQ)
# T1 sequence (Q00961 20-1237, other chains not shown): as above
compound,measurement,setting,value
"COc1ccc(OCC2c3cc(OC)c(OC)cc3CCN2C(=O)c2cccc(Cl)c2)cc1 (stereo not drawn) [CIQ, (3-chlorophenyl)(6,7-dimethoxy-1-((4-methoxyphenoxy)methyl)-3,4-dihydroisoquinolin-2(1H)-yl)methanone]",response in the presence of CIQ vs control,NR1/NR2C receptors [1]; [28],significantly different than in control
same,potentiation of NMDA-activated response,NR1/NR2C receptors [1]; 100 μM NMDA and 30 μM glycine,233 ± 13%
same,effect of CIQ alone (no agonist),NR1/NR2C receptors [1]; CIQ alone,no effect
same,maximal potentiation,NR1/NR2C receptors [1]; response without CIQ = 100%,197 ± 20%
same,response in the presence of CIQ vs control,NR1/NR2D receptors [2]; [28],significantly different than in control
same,potentiation of NMDA-activated response,NR1/NR2D receptors [2]; 100 μM NMDA and 30 μM glycine,205 ± 5%
same,effect of CIQ alone (no agonist),NR1/NR2D receptors [2]; CIQ alone,no effect
same,"potentiation of receptor response, % of control","NR1/NR2D receptors [2]; CIQ dissolved in 2-hydroxypropyl-beta-cyclodextrin solution (1% w/v), no DMSO",144 ± 3 % of control
same,maximal potentiation,NR1/NR2D receptors [2]; response without CIQ = 100%,211 ± 7%
same,effect on receptor response,NR1/NR2A receptors [3]; 10 μM CIQ,did not alter; also recorded: without affecting
same,potentiation of NMDA-activated response,NR1/NR2A receptors [3]; 100 μM NMDA plus 30 μM glycine,did not potentiate
same,effect on receptor response,NR1/NR2B receptors [4]; 10 μM CIQ,did not alter; also recorded: without affecting
same,potentiation of NMDA-activated response,NR1/NR2B receptors [4]; 100 μM NMDA plus 30 μM glycine,did not potentiate
same,effect on receptor response,AMPA (GluR1) receptor,did not alter; also recorded: not significantly different than control
same,effect on receptor response,GluR2 receptor,not significantly different than control
same,effect on receptor response,GluR3 receptor,not significantly different than control
same,effect on receptor response,GluR4 receptor,not significantly different than control
same,effect on receptor response,GluR5 receptor,not significantly different than control
same,effect on receptor response,kainate (GluR6) receptor,did not alter; also recorded: not significantly different than control
same,EC50,NR1/NR2C receptors [5],1700 nM
same,response compared to control,NR1/NR2C receptors [6]; [29],180%
same,maximal potentiation,NR1/NR2C receptors [6]; HEK 293 cells,180%
same,de-potentiation time constant tau,NR1/NR2C receptors [6]; [30],4.0 ± 0.7 s
same,10-90% rise time of receptor response,NR1/NR2C receptors [6]; [31],9 ± 1 ms
same,response compared to control,NR1/NR2D receptors [7]; [29],180%
same,potentiation of response to NMDA at 33°C,"NR1/NR2D receptors [7]; 10 μM CIQ, 33°C, HEK 293 cells",200±20%
same,maximal potentiation,NR1/NR2D receptors [7]; HEK 293 cells,180%
same,de-potentiation time constant tau,NR1/NR2D receptors [7]; [30],6.5 ± 0.7 s
same,10-90% rise time of receptor response,NR1/NR2D receptors [7]; [31],15 ± 2 ms
same,effect on receptor response,NR1/NR2A receptors [8],no effect
same,reduction in the response,NR1/NR2B receptors [9],25%
same,effect on the reversal potential,NR1/NR2D receptors [10],no detectable effect
same,"mean shut time, % of control",NR1/NR2D receptors [10],75 ± 8 % of control
same,"closed duration area, component 1",NR1/NR2D receptors [10]; composite of 6 patches,37
same,"closed duration area, component 2",NR1/NR2D receptors [10]; composite of 6 patches,18
same,"closed duration area, component 3",NR1/NR2D receptors [10]; composite of 6 patches,12
same,"closed duration area, component 4",NR1/NR2D receptors [10]; composite of 6 patches,18
same,"closed duration area, component 5",NR1/NR2D receptors [10]; composite of 6 patches,15
same,"closed duration area, component 6",NR1/NR2D receptors [10]; composite of 6 patches,0.75
same,"closed duration time constant, component 1",NR1/NR2D receptors [10]; composite of 6 patches,0.026 ms
same,"closed duration time constant, component 2",NR1/NR2D receptors [10]; composite of 6 patches,0.23 ms
same,"closed duration time constant, component 3",NR1/NR2D receptors [10]; composite of 6 patches,0.73 ms
same,"closed duration time constant, component 4",NR1/NR2D receptors [10]; composite of 6 patches,3.4 ms
same,"closed duration time constant, component 5",NR1/NR2D receptors [10]; composite of 6 patches,12 ms
same,"closed duration time constant, component 6",NR1/NR2D receptors [10]; composite of 6 patches,39 ms
same,"open period time constant 1, composite distribution",NR1/NR2D receptors [10]; composite of 6 patches,0.036 ms
same,"open period time constant 2, composite distribution",NR1/NR2D receptors [10]; composite of 6 patches,0.63 ms
same,CIQ sensitivity of chimeric receptor,[11],potentiated; also recorded: CIQ sensitivity is observed
same,CIQ activity at chimeric receptor,[12],did not show any activity
same,CIQ activity at chimeric receptor,[13],did not show any activity
same,change of CIQ potentiation vs NR2D,[14],did not significantly alter
same,change of CIQ potentiation vs NR2D,[15],attenuated; also recorded: reduced level of potentiation
same,CIQ potentiation of mutant receptor,NR1/NR2D(T592I),completely abolished; also recorded: no longer potentiated
same,potentiation of mutant receptor response,[16],135 ± 5%
same,potentiation of NMDA-activated responses compared to control,"[17]; 20 μM CIQ bath applied, −60 mV, 0.2 mM Mg2+",230 ± 29%
same,"NMDA-activated response after wash, of control amplitude",[17]; after washout of 20 μM CIQ,102 ± 11%
same,potentiation of NMDA-activated responses,[18],did not potentiate
same,solubility,[19],20 µM
same,EC50,[20],3000 nM
same,CIQ sensitivity of chimeric receptor,[21],CIQ sensitivity is observed
same,CIQ sensitivity of chimeric receptor,[22],CIQ sensitivity is observed
same,CIQ sensitivity of chimeric receptor,[23],CIQ sensitivity is observed
same,CIQ sensitivity of chimeric receptor,[24],CIQ sensitivity is observed
same,effect on receptor response,NR1/NR2A* receptors,no detectable effect; also recorded: not potentiated
same,effect on triheteromeric receptor response,[25],not potentiated; also recorded: no effect
same,effect on triheteromeric receptor response,[26],significantly potentiated
same,effect on triheteromeric receptor response,[27],significantly potentiated
"N[C@@H](CCC(=O)O)C(=O)O [Glutamate, reference compound]",Slope,NR1/NR2C receptors [1],1.5
same,EC50,NR1/NR2C receptors [1]; [32],620 ± 40 nM
same,EC50,NR1/NR2C receptors [1]; [33],740 ± 60 nM
same,Slope,NR1/NR2D receptors [2],1.5
same,EC50,NR1/NR2D receptors [2]; [32],240 ± 20 nM
same,EC50,NR1/NR2D receptors [2]; [33],300 ± 30 nM
"NCC(=O)O [Glycine, reference compound]",Slope,NR1/NR2C receptors [1],1.5
same,Slope,NR1/NR2D receptors [2],1.5
